One compound from US9522908B2, “Ezrin inhibitors and methods of making and using” (Georgetown University, priority 2010, dated 2016) can be followed below.

Each structure is given as a SMILES string.

For experiment [1], the target named is T1, recombinant WT ezrin protein (Mus musculus, UniProt P26040).
T1 construct: full-length recombinant ezrin protein was expressed in bacteria; made in house; host or cells: E. coli M15pREP4 (pQE16 vector)
In words: SPR direct binding to immobilized recombinant WT ezrin (Biacore). The settings on record: 5 independent experiments. Here is the method:
FIG. 7 provides results illustrating the functional activity of select compounds of the present invention on ezrin protein. The chemical structure of the embodied compounds is detailed and the corresponding binding and viability values are listed. The binding potential of select compounds to ezrin was analyzed by using SPR. Recombinant WT ezrin was immobilized onto a Biacore CM5 sensorchip and compounds were injected one-at-a-time at 6 different concentrations. SPR sensograms and KD values were determined using Biacore software. […] The viability and growth inhibition activity of select compounds were determined by treatment of high ezrin expressed K7M2 and low ezrin expressed K12 osteosarcoma cells with a dose range of the select compound for 24 hours. […]
Compounds for initial screening were acquired from 4 libraries (Challenge Set, Diversity Set, Mechanistic Set and Natural Product Set) of the Developmental Therapeutics Program, National Cancer Institute. Their direct ezrin binding potential was analyzed by using Biacore T100 v2.0.3 instrument (GE Healthcare, Piscataway N.J.). […] Existing interactions are measured based on total mass change on the chip surface. Recombinant WT ezrin protein was used as the ligand and immobilized on to a Biacore CM5 sensorchip and compounds were injected one at a time as the binding interactions were recorded. […]

The target of another experiment is actin. The experiment in a line: SPR binding to actin (negative control). The settings on record: data not shown.
Experiment [2] addresses T2, ezrin T567 phosphorylation by PKC,τ (Mus musculus, UniProt P26040).
T2 construct: Recombinant full length ezrin was prepared to a concentration of 100 μg/ml; host or cells: E. coli M15pREP4 (ezrin)
In words: In vitro kinase assay: recombinant ezrin T567 phosphorylation by PKC,τ. The settings on record: phosphospecific antibody immunoblot densitometry. The format is biochemical. Here is the method: (§1) FIG. 2 illustrates NSC305787 and NSC668394 inhibit ezrin T567 phosphorylation. (A) K7M2 metastatic OS cell line was treated with NSC305787 (10 μM) and NSC668394 (10 μM) for 6 hours. […] The effect of NSC305787 and NSC668394 on recombinant ezrin phosphorylation by recombinant PKC, was tested in an in vitro kinase assay. Phoshorylation of ezrin was detected by a phosphospecific antibody following PAGE and immunoblotting. Experiments were repeated three times and densitometric analysis of bands was used for calculation of % inhibition (graphs). Error bars represents s.d. from three independent experiments. Kinase activities of PKC,τ, PKC,α and PKC,γ were also evaluated with a nonspecific substrate in the presence of NSC305787 and NSC668394 by a radioactive in vitro kinase assay. Data analysis was done by using a sigmoidal dose-response equation where log EC50 for each curve with the ezrin substrate and the non-specific substrate were compared to each other (P=0.0118 for NSC305787 and P=0.0084 for NSC668394).
(§2) 500 ng of recombinant ezrin protein in kinase assay mix (200 μM ATP) was incubated with the compounds at 1-100 μM concentrations for 15 minutes on ice, then 50 ng PKC,τ (Millipore, Billerica, Mass.) was added. Reaction was performed at 30° C. for 30 min and stopped by adding 2× sample buffer. […]

A further experiment deals with PKC,τ, PKC,α and PKC,γ. In words: Radioactive in vitro kinase assay of PKC isoforms with nonspecific substrate. The format is biochemical. The procedure: as §1, §2
A further experiment concerns the target T3, PKC,τ (Homo sapiens, UniProt P41743).
T3 sequence (P41743 1-596): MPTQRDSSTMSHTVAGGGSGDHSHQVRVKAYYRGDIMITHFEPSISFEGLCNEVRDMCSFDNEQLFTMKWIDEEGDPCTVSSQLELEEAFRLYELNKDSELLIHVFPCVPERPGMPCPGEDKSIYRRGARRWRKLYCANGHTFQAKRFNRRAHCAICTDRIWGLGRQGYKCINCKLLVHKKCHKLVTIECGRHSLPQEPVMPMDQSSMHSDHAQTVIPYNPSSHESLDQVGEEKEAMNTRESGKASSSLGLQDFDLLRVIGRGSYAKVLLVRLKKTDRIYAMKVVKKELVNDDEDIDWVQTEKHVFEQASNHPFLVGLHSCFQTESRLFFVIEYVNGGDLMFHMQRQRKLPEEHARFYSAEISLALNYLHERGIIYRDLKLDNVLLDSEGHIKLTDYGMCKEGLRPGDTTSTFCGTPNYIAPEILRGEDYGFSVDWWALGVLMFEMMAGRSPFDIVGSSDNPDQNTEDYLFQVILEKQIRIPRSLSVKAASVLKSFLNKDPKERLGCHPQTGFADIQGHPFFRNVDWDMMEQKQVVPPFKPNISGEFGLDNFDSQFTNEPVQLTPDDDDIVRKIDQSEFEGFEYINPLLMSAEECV
In words: SPR direct binding to PKC,τ (Biacore). The conditions noted are these: data not shown.

A further experiment has as its system zebrafish embryos. In words: Zebrafish embryo development assay. The format is in vivo, Zebrafish (Danio rerio). The procedure:
Animals. Zebrafish (Danio rerio) were raised, maintained and crossed as described before (Westerfield, M. University of Oregon Press, Eugene. Or., 1993). Development of embryos was studied at 28° C. and staging was determined by morphological characteristics (Kimmel, C. B., et al., Dev. Dyn. 203, 253-310 (1995)).
A translation blocking anti-ezrin morpholino oligonucleotide (MO), described and validated by Link et al. (Link, V., et al., J. Cell Sci., 119, 2073-2083 (2006)), MO1, 5′-[…] (SEQ ID NO:1), was synthesized by Gene-Tools, LCC (Philomath, Oreg.). MOs were microinjected into one to four cell stage embryos.
Zebrafish embryos were arrayed, three per well, in 96-well plates. Compounds were added at 1-33 μM concentrations. Embryos were observed, and photographed, at 70% epiboly, 24-28 hours post fertilization (hpf) and 48 hpf.

T1 sequence (P26040 whole entry): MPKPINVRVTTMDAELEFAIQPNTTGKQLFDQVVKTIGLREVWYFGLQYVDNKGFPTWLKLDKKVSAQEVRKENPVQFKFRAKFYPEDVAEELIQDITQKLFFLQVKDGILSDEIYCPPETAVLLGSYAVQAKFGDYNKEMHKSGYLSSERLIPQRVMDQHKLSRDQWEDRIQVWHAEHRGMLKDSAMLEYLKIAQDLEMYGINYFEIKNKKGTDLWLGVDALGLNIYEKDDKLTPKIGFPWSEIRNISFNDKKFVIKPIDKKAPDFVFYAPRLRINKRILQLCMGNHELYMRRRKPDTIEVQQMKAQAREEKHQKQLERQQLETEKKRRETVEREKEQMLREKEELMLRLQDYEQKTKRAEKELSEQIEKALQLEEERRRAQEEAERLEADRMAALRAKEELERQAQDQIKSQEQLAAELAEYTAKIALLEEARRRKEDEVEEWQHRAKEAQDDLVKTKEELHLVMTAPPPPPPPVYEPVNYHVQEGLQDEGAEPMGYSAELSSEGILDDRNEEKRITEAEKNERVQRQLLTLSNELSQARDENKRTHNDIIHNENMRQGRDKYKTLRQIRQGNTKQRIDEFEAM
T2 sequence (P26040 whole entry): as above

For `OC(c1cc(C23CC4CC(CC(C4)C2)C3)nc2c(Cl)cc(Cl)cc12)C1CCCCN1` (centres unmarked) [NSC305787], the results for the equilibrium dissociation constant (Kd) (in experiment [1]; on actin; on PKC,τ) were 5.85 µM, 91.4 µM and 172 µM, respectively. In addition, the IC50 in experiment [2] was found to be 5.5 µM. Further, in the experiment with PKC,τ, PKC,α and PKC,γ (nonspecific substrate), the “concentration to inhibit all three PKC isoforms” value was approximately 50 µM. For the same compound, the “fold higher concentration to inhibit PKC isoforms than to inhibit ezrin phosphorylation” value with PKC,τ, PKC,α and PKC,γ (nonspecific substrate vs ezrin substrate) is reported as 10 fold. In addition, the “embryos with epiboly defects” value with zebrafish embryos (10 μM) was determined as 15%; with zebrafish embryos (20 μM), 100%.
